# From paper PMC7482066, “Unstable Mechanisms of Resistance to Inhibitors of Escherichia coli Lipoprotein Signal Peptidase” (mBio, 2020)
# pKi: −log10 of the molar value.
# Assays:
# [1] = system: E. coli MG1655 ΔtolC; assay: MIC; format: cell-based; conditions: E. coli MG1655 WT vs MG1655 ΔtolC
# Experimental: MICs of compounds in each strain were determined in cation-adjusted Mueller-Hinton II (MHII) broth or MHII agar according to the Clinical and Laboratory Standards Institute protocol (CLSI 2006). To measure the effect of protein binding on activity, MIC assays were performed in the presence of 50% heat-inactivated human serum. The serum killing assay was performed as described previously ([43]). FOR assays and growth on plates containing G0790 were always performed on MHII agarose plates.
# [2] = system: E. coli CFT073 imp4213; assay: Frequency of resistance (FOR); format: cell-based; conditions: 4× MIC, MHII agarose
# Experimental: Frequencies of resistance (FORs) of G0790 were determined for E. coli CFT073, E. cloacae (ATCC 13047), and K. pneumoniae (ATCC 700603) as previously published ([70]). To determine the FOR, 3 to 4 colonies of the strain to be tested were picked from a fresh plate and diluted to an optical density at 600 nm (OD600) of 0.00001 in 1 ml of cation-adjusted MHBII. Ten independent 5-ml cultures in MHBII were prepared by inoculating 5 μl (approximately 1 × 10^3 CFU) and incubated at 37°C for 18 h. The bacteria were pelleted by centrifugation at 4000 × g at 4°C for 15 min and resuspended in 0.5 ml fresh MHBII. Two hundred fifty microliters of the bacterial suspension was plated evenly on MHII agarose plates containing globomycin or G0790 at a final concentration of 4× and 8× MIC. In parallel, CFU from each independent culture was measured by spotting 10-fold serial dilutions on MHII agar plates and incubated at 37°C for 18 h. Colonies were counted at days 1, 2, and 3 postinoculation. FOR was calculated as the ratio of the total number of resistant colonies relative to the total CFU plated. For strains that had no resistant colonies growing on plates, the p0 method was used to calculate the FOR (FOR = m/total CFU plated, where m = −ln p0 and p0 is the proportion of cultures with no mutants; 0.7 ≥ p0 ≥ 0.1), as described previously ([71]). Colonies were picked and resuspended in 30 μl MHBII broth medium, and 10 μl was plated on an MHII agar plate containing G0790 to be used to determine the MIC. Of the remaining 20 μl, half was used to inoculate 1.5 ml MHBII broth medium containing G0790 and grown at 37°C for 18 h to generate cell lysates for Western blot analysis, isolate genomic DNA (gDNA) for whole-genome sequencing, and for frozen glycerol stocks.
# [3] = system: E. coli CFT073; assay: Bactericidal activity, CFU over time; format: cell-based; conditions: G0790 at 2× MIC, two independent experiments in duplicates
# [4] = system: Lpp; conditions: in words; cited from earlier work
# Description: We confirmed that the increase in potency against WT bacterial strains was specific to LspA by using multiple parallel approaches. […] Third, like GBM, G0790 is bactericidal, a ...
# [5] = system: LspA; conditions: cited from earlier work; for LspA inhibition, mode: in words
# Description: Bacterial lipoprotein biosynthesis is an attractive target for novel antibiotic drug discovery, as bacterial lipoproteins play critical roles in adhesion, nutrient uptake, antibiotic resistance, virulence, invasion, and immune evasion ([14]). Lipoprotein biosynthesis in Gram-negative bacteria is mediated by three essential inner membrane-localized enzymes ([14]), which work sequentially to generate the mature triacylated lipoproteins. The second enzyme in the pathway, prolipoprotein signal peptidase (LspA), is an aspartyl endopeptidase which cleaves off the signal peptide N-terminal to a conse ... || Our efforts to identify potent GBM analogs were driven by whole bacterial cell activity assays due to the low translatability of in vitro biochemical activity ([34], [35]).
# [6] = system: wild-type (WT) Gram-negative bacteria; conditions: in words; cited from earlier work
# Description: Therefore, with the goal of increasing GBM whole-cell potency through medicinal chemistry optimization, we identified G0790 as an analog with increased growth inhibitory activity against multiple Gram-negative bacterial species ([36]). G0790 contains (S)-2,3-diaminopropionic acid (Dap), cyclohexylglycine (Chg), and N-methyl ...
# [7] = system: lspA-overexpressing or lpp-deleted bacteria; conditions: in words, cited from earlier work
Compound,WT/tolC MIC shift [1],FOR (frequency of resistance) [2],Bactericidal activity [3],Accumulation of peptidoglycan-associated Lpp in the inner membrane [4],"LspA inhibition, mode [5]",pKi ([5]; previously described by Dev et al.),Growth inhibition of WT Gram-negative bacteria [6],Effect of plasmid-based lspA overexpression [7],"Effect of complete Lpp deletion ([7]; previous finding, ref as printed: none in abstract)"
"CCCCCC[C@H]1OC(=O)CNC(=O)[C@H]([C@H](C)O)NC(=O)[C@H](CO)NC(=O)[C@H]([C@H](C)CC)NC(=O)[C@H](CC(C)C)N(C)C(=O)[C@@H]1C [GBM, globomycin]",~128 fold,1.4 × 10^−9,bactericidal,accumulation of the peptidoglycan-associated form of Lpp in the inner membrane,inhibit LspA function by targeting the catalytic dyad aspartic acid residues,7.44,weak growth inhibition,confer resistance,leads to globomycin resistance
CCCC1OC(=O)C(C)CC(C)CCCCC(=O)CCCC(CC)/C=C/C=C(\COC)CCC(O)C(O)CC(O)CNC1=O (centres unmarked) [myxovirescin],–,–,–,–,inhibit LspA function by targeting the catalytic dyad aspartic acid residues,–,–,confer resistance,–
